In test [1] the target is T1, NPFF-R2 (Homo sapiens, UniProt Q9Y5X5).
T1 construct: host or cells: CHO-K1 (AequoScreen, co-expressing aequorin)
The experiment in a line: Competitive binding, [^125I]-1DMe, membranes of CHO-K1 cells with NPFF-R2. The protocol:
Pellets of CHO-K1 cells containing NPFF-R2, NPFF-R1 and KOR receptors were homogenized in ice-cold homogenizing buffer (20 mM HEPES pH 7.1, 5 mM MgCl2, 0.7 mM bacitracin) with a DIAX 100 Homogenizer (Heidolph Instruments, Schwabach, Germany) and centrifuged in an ultracentrifuge (Beckman Coulter, Fullerton, CA, USA) at 26,000× g for 15 min at 4 °C. The pellets were homogenized in ice-cold homogenization buffer, and the previous steps were repeated 2 more times. After the third centrifugation, pellets were resuspended in ice-cold storage buffer (50 mM Tris-Cl pH 7.4, 0.5 mM EDTA, 10 mM MgCl2, 10% sucrose), and aliquots were stored at −80 °C. The concentration of isolated membrane proteins was determined by a PierceTM BCA Protein Assay Kit (Pierce, Rockford, IL, USA). […]
(§1) Experiments were carried out in duplicate at least three times, and Ki was calculated using the Cheng-Prusoff equation.
Data were analyzed by GraphPad Software (San Diego, CA, USA) and are presented as the means ± SEM. The saturation and competitive binding experiments were analyzed according to [46] using the Cheng-Prusoff equation [33]. […] From saturation binding experiments, the dissociation constant (Kd) and number of binding sites/cell (Bmax) were calculated. Inhibition constants (Ki) were calculated from IC50 values, Kd and the concentration of radioligands.

Test [2] addresses T1, NPFF-R2. The experiment in a line: Intracellular Ca^2+ mobilization, AequoScreen CHO-K1 cells with NPFF-R2. It is filed as cell-based. Particulars: CHO-K1 NPFF-R2 aequorin cells; peptides 10^−12 to 10^−5 M; mean ± SEM, three times in duplicates; read-out: EC50 intracellular Ca^2+ release, NPFF-R2. The protocol: The intracellular Ca^2+ level was measured using the AequoScreen stable CHO-K1 cell line containing NPFF-R2 purchased from Perkin Elmer according to the manufacturer’s protocol. Cells at 80–90% confluence cultured in media without selective antibiotics were detached (PBS pH 7.4 + 0.5 mM EDTA) and centrifuged. Cells resuspended in phenol red-free DMEM with 0.1% protease-free BSA and 5 µM coelenterazine h (Thermo Fisher Scientific Inc. Brand) were seeded at 50,000 cells/well in 96-well plates and incubated in the dark at RT with gentle agitation for 4 h. Peptides were tested at concentrations from 10^−12 to 10^−5 M. Luminescent light emission was recorded using a FlexStation 3 plate reader.
Ca^2+ release assay data are shown as the percentage of maximal response, and the results were analyzed by nonlinear regression as log agonist versus response using GraphPad software. Data are representative of at least three experiments, each performed in duplicate.

The target of another test is T2, Y5 (Homo sapiens, UniProt Q15761).
T2 construct: host or cells: U2OS
T2 sequence (Q15761 1-445): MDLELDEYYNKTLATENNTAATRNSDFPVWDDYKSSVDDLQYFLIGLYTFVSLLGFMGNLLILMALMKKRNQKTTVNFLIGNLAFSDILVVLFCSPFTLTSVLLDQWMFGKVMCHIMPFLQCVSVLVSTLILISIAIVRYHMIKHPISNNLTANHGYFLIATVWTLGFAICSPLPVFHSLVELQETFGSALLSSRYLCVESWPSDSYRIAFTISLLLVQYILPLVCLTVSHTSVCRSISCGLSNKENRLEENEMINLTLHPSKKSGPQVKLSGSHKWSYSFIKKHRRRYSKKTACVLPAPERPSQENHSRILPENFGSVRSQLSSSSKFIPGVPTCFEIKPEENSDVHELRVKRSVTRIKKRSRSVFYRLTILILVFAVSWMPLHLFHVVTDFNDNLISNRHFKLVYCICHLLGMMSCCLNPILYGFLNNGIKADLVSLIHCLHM
The experiment in a line: Competitive and saturation binding, [^125I]-PYY, U2OS cells with Y5. The protocol: Competition binding experiments were performed according to [45]. […] Binding experiments using U2OS cells were optimized and performed in assay buffer (50 mM Tris-Cl pH 7.4, 118 mM NaCl, 5 mM MgCl2, 4.7 mM KCl, 0.1% BSA) for cells stably expressing GHSR and (25 mM HEPES, 120 mM NaCl, 5 mM MgCl2, 4.7 mM KCl, 1 mM CaCl2, 0.5% BSA, 2 g/L glucose) for cells containing receptors Y1, Y2 and Y5. […] Cells were incubated for 60 min at room temperature (RT).
as §1
Data were analyzed by GraphPad Software (San Diego, CA, USA) and are presented as the means ± SEM. The saturation and competitive binding experiments were analyzed according to [46] using the Cheng-Prusoff equation [33]. The competitive binding curves were plotted compared to the best fit for single-binding site models, and half maximal inhibitory concentration (IC50) values were obtained from nonlinear regression analysis. From saturation binding experiments, the dissociation constant (Kd) and number of binding sites/cell (Bmax) were calculated. Inhibition constants (Ki) were calculated from IC50 values, Kd and the concentration of radioligands.

In the next test the target is T3, GHSR (Homo sapiens, UniProt Q92847).
T3 construct: host or cells: U2OS
T3 sequence (Q92847 whole entry): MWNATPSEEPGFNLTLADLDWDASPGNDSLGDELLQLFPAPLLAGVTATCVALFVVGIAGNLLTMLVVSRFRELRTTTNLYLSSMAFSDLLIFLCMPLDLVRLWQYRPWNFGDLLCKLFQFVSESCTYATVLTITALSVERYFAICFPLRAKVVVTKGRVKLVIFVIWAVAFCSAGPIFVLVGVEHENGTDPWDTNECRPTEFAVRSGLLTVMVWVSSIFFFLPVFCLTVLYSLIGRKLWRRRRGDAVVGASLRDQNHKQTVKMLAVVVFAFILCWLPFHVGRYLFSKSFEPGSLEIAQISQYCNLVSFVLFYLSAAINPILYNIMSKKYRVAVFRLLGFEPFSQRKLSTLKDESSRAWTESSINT
Briefly: Beta-lactamase reporter gene assay (FRET), GHSR. The test is classed as cell-based. For orientation: In a reporter assay the amount or activity of a reporter protein is the signal.

The next test deals with T4, GPR10 (Homo sapiens, UniProt P49683).
T4 construct: host or cells: CHO-K1
T4 sequence (P49683 1-370): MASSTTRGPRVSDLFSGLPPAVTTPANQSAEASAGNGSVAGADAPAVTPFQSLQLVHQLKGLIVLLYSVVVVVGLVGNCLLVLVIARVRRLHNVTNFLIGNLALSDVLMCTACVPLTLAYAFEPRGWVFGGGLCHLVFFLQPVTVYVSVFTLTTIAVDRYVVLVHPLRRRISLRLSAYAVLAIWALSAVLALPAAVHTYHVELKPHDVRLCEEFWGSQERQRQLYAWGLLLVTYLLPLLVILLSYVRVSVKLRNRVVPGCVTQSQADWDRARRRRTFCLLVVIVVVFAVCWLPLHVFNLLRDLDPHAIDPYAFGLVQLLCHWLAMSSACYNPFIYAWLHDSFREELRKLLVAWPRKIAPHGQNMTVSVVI
Briefly: Beta-lactamase reporter gene assay (FRET), GPR10. As to conditions: β-lactamase assay, agonist mode, CHO-K1 cells; mean ± SEM, 2–3 independent experiments in duplicates. It is filed as cell-based.

No end group written: not given here.

T1 sequence (Q9Y5X5 whole entry): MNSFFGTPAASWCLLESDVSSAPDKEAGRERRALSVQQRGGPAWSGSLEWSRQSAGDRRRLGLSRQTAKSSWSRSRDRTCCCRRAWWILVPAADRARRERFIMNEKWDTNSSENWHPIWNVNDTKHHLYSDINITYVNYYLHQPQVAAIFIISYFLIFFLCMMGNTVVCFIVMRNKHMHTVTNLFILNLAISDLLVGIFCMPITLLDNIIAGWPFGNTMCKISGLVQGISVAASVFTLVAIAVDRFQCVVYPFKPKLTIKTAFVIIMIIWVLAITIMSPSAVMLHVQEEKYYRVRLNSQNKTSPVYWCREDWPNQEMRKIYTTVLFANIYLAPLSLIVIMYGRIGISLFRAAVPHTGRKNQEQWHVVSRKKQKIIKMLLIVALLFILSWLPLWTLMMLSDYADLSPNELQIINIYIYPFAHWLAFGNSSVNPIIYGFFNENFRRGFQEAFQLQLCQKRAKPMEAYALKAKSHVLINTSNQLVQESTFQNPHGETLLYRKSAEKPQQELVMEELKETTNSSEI

Broadly, the Ki is the equilibrium dissociation constant of an inhibitor or competing ligand from its target. A lower Ki goes with tighter binding. The term EC50 denotes the concentration at which the effect is half-maximal. In the case of `CCCCCCCCCCCCCCCC(=O)N[C@@H](CO)C(=O)N[C@@H](CCCNC(=N)N)C(=O)N[C@H](C(=O)N[C@@H](Cc1c[nH]cn1)C(=O)N[C@@H](CCCNC(=N)N)C(=O)N[C@@H](Cc1c[nH]cn1)C(=O)N[C@@H](CO)C(=O)N[C@@H](CCSC)C(=O)N[C@@H](CCC(=O)O)C(=O)N[C@H](C(=O)N[C@@H](CCCNC(=N)N)C(=O)N[C@H](C(=O)N1CCC[C@H]1C(=O)N[C@@H](CC(=O)O)C(=O)N[C@H](C(=O)N[C@@H](CC(N)=O)C(=O)N1CCC[C@H]1C(=O)N[C@@H](C)C(=O)N[C@@H](Cc1c[nH]c2ccccc12)C(=O)N[C@@H](Cc1ccc(O)cc1)C(=O)N[C@@H](C)C(=O)N[C@@H](CO)C(=O)N[C@@H](CCCNC(=N)N)C(=O)NCC(=O)N[C@H](C(=O)N[C@@H](CCCNC(=N)N)C(=O)N1CCC[C@H]1C(=O)N[C@H](C(=O)NCC(=O)N[C@@H](CCCNC(=N)N)C(=O)N[C@@H](Cc1ccccc1)C(N)=O)C(C)C)[C@@H](C)CC)[C@@H](C)CC)[C@@H](C)O)[C@@H](C)CC)[C@@H](C)O` [Palm-PrRP31], the Ki came to 0.77 ± 0.19 nM on NPFF-R2 [1] and 32.6 ± 6.16 nM on Y5. Also, the concentration for a half-maximal effect (EC50) at NPFF-R2 [2] is 14.2 ± 1.52 nM.
As for “SRAHQHSMETRTPDINPAWYTGRGIRPVGRF-NH2 [PrRP31, prolactin-releasing peptide 31, reference compound]”, the concentration for a half-maximal effect (EC50) on GHSR is > 10000 nM; at NPFF-R2 [2], 89.33 ± 0.84 nM; on GPR10 it was 0.53 ± 0.0705 nM. The Ki at NPFF-R2 [1] is 26.7 ± 9.01 nM; at Y5, 2860 ± 43 nM.

Values taken from article PMC8396344, “Palmitoylation of Prolactin-Releasing Peptide Increased Affinity for and Activation of the GPR10, NPFF-R2 and NPFF-R1 Receptors: In Vitro Study” (International Journal of Molecular Sciences, 2021).
